# Assay: recombinant UMI read abundance after kanamycin selection (control-corrected) (log10(CPM+1)); higher = more efficient recombination; extreme values may be limits of the assay; sequences stand for … in AGTGCAGAGAAAATCGGCCAGTTTTCTCTGCCTGCAGTCCGCATGCCGTGGGACCCCTTGGGTTCTAACCTGTTGCCTAGATTTATGCAGCGGACTGCCTTTCTCCCAAAGTGATAAACCGG…AGGTTGGTTTCACT; site = the 11-nt donor
# Method in brief: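 In a pooled Escherichia coli screen for the IS621 bridge recombinase, donor and donor-binding-loop pairs were each placed with a 12-nt UMI on a plasmid bearing a promoterless kanamycin gene. This library was co-electroporated with a target plasmid encoding a fixed target and T7-inducible recombinase, and cells were plated either on IPTG (0.07 mM) plus kanamycin or without selection, in two replicates each. Recombinant UMIs were PCR-amplified across the donor–target junction and sequenced, and counts were converted to CPM, averaged over replicates, scaled by control-derived factors and reported as log10(CPM+1).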
row,Sequence,recombinant UMI read abundance (log10)
1,GCGCAGCCATGGACCGGTTTTCCCGGTAATCCGTATTTGGG (site GCGGAGCCTCC),0.0138
2,GCGCAGCCATGGACCGGTTTTCCCGGTAATCCGTATTTGGG (site GCGTAGCCTCC),0.0296
3,GCGCCCTCATGGACCGGTTTTCCCGGTAATCCGTATTTGAC (site GCGCCCTCTGT),2.76
4,GCGCCGGCATGGACCGGTTTTCCCGGTAATCCGTATTTGTG (site GCGCCGGCTCA),0.015
5,GCGCTCTCATGGACCGGTTTTCCCGGTAATCCGTATTTGCT (site GCGCTCTCTAG),2.75
6,GCGGAGTCATGGACCGGTTTTCCCGGTAATCCGTATTTGTT (site GCGGAGTCTAA),3.15
7,GCGTATGCATGGACCGGTTTTCCCGGTAATCCGTATTTGTA (site GCGTATGCTTA),2.99
8,GCGTGACCATGGACCGGTTTTCCCGGTAATCCGTATTTGCA (site GCGTGACCTTG),0.00644
9,GCGTGGTCATGGACCGGTTTTCCCGGTAATCCGTATTTGGC (site GCGTGGTCTGC),2.06
10,GCGTTGACATGGACCGGTTTTCCCGGTAATCCGTATTTGAG (site GCGTTGACTCT),1.98
11,GCGTTGACATGGACCGGTTTTCCCGGTAATCCGTATTTGCA (site GCGTTGACTTG),2.59
12,GCTAATGCATGGACCGGTTTTCCCGGTAATCCGTATTTGCC (site GCTAATGCTGG),0
13,GCTAATGCATGGACCGGTTTTCCCGGTAATCCGTATTTGCC (site GCTACTGCTGG),0
14,GCTAATGCATGGACCGGTTTTCCCGGTAATCCGTATTTGCC (site GCTAGTGCTGG),0
15,GCTAATGCATGGACCGGTTTTCCCGGTAATCCGTATTTGCC (site GCTATTGCTGG),0
16,GCTACCCCATGGACCGGTTTTCCCGGTAATCCGTATTTGTG (site GCTACCCCTCA),0.013
17,GCTACCGCATGGACCGGTTTTCCCGGTAATCCGTATTTGCA (site GCTACCGCTTG),2.13
18,GCTACCTCATGGACCGGTTTTCCCGGTAATCCGTATTTGCG (site GCTACCTCTCG),1.22
19,GCTACGGCATGGACCGGTTTTCCCGGTAATCCGTATTTGCC (site GCTACAGCTGG),0
20,GCTACGGCATGGACCGGTTTTCCCGGTAATCCGTATTTGCC (site GCTACCGCTGG),0
21,GCTACGGCATGGACCGGTTTTCCCGGTAATCCGTATTTGCC (site GCTACGGCTGG),0.761
22,GCTACGGCATGGACCGGTTTTCCCGGTAATCCGTATTTGCC (site GCTACTGCTGG),0
23,GCTACTACATGGACCGGTTTTCCCGGTAATCCGTATTTGCC (site GCTACTACTGG),0
24,GCTACTACATGGACCGGTTTTCCCGGTAATCCGTATTTGCC (site GCTACTCCTGG),0
25,GCTACTACATGGACCGGTTTTCCCGGTAATCCGTATTTGCC (site GCTACTGCTGG),0

row,Sequence,recombinant UMI read abundance (log10)
1,GCTACTACATGGACCGGTTTTCCCGGTAATCCGTATTTGCC (site GCTACTTCTGG),0
2,GCTACTGCATGGACCGGTTTTCCCGGTAATCCGTATTTGAC (site GCTACTGCTGA),0
3,GCTACTGCATGGACCGGTTTTCCCGGTAATCCGTATTTGAC (site GCTACTGCTGC),0
4,GCTACTGCATGGACCGGTTTTCCCGGTAATCCGTATTTGAC (site GCTACTGCTGG),0
5,GCTACTGCATGGACCGGTTTTCCCGGTAATCCGTATTTGAC (site GCTACTGCTGT),2.07
6,GCTACTTCATGGACCGGTTTTCCCGGTAATCCGTATTTGCC (site GCTACTACTGG),0
7,GCTACTTCATGGACCGGTTTTCCCGGTAATCCGTATTTGCC (site GCTACTCCTGG),0
8,GCTACTTCATGGACCGGTTTTCCCGGTAATCCGTATTTGCC (site GCTACTGCTGG),0
9,GCTACTTCATGGACCGGTTTTCCCGGTAATCCGTATTTGCC (site GCTACTTCTGG),1.34
10,GCTAGAGCATGGACCGGTTTTCCCGGTAATCCGTATTTGTA (site GCTAGAGCTTA),2.58
11,GCTAGGGCATGGACCGGTTTTCCCGGTAATCCGTATTTGTT (site GCTAGGGCTAA),1.53
12,GCTCGCCCATGGACCGGTTTTCCCGGTAATCCGTATTTGAT (site GCTAGCCCTAT),0.0115
13,GCTCGCCCATGGACCGGTTTTCCCGGTAATCCGTATTTGAT (site GCTCGCCCTAT),0.567
14,GCTCGCCCATGGACCGGTTTTCCCGGTAATCCGTATTTGAT (site GCTGGCCCTAT),0.019
15,GCTCGCCCATGGACCGGTTTTCCCGGTAATCCGTATTTGAT (site GCTTGCCCTAT),0.00792
16,GCTCGTACATGGACCGGTTTTCCCGGTAATCCGTATTTGAT (site GCTCGTACTAT),1.1
17,GCTCTGCCATGGACCGGTTTTCCCGGTAATCCGTATTTGCG (site GCTCTGCCTCG),0.0154
18,GCTGCAGCATGGACCGGTTTTCCCGGTAATCCGTATTTGTC (site GCTGCAGCTGA),2.59
19,GCTGGAACATGGACCGGTTTTCCCGGTAATCCGTATTTGAC (site GCTGGAACTGT),1.62
20,GCTGTGTCATGGACCGGTTTTCCCGGTAATCCGTATTTGGA (site GCTGTGTCTTC),1.46
21,GCTTAGACATGGACCGGTTTTCCCGGTAATCCGTATTTGGC (site GCTTAGACTGC),2.37
22,GCTTCCCCATGGACCGGTTTTCCCGGTAATCCGTATTTGAT (site GCTTACCCTAT),0.0108
23,GCTTCCCCATGGACCGGTTTTCCCGGTAATCCGTATTTGAT (site GCTTCCCCTAT),0.569
24,GCTTCCCCATGGACCGGTTTTCCCGGTAATCCGTATTTGAT (site GCTTGCCCTAT),0.00758
25,GCTTCCCCATGGACCGGTTTTCCCGGTAATCCGTATTTGAT (site GCTTTCCCTAT),0.028

row,Sequence,recombinant UMI read abundance (log10)
1,GCTTCCCCATGGACCGGTTTTCCCGGTAATCCGTATTTGCA (site GCTTCCCCTTG),1.15
2,GCTTCTGCATGGACCGGTTTTCCCGGTAATCCGTATTTGCC (site GCTACTGCTGG),0.647
3,GCTTCTGCATGGACCGGTTTTCCCGGTAATCCGTATTTGCC (site GCTCCTGCTGG),1.82
4,GCTTCTGCATGGACCGGTTTTCCCGGTAATCCGTATTTGCC (site GCTGCTGCTGG),0
5,GCTTCTGCATGGACCGGTTTTCCCGGTAATCCGTATTTGCC (site GCTTCTGCTGG),1.86
6,GCTTGCCCATGGACCGGTTTTCCCGGTAATCCGTATTTGGT (site GCTTGCCCTAA),0.00835
7,GCTTGCCCATGGACCGGTTTTCCCGGTAATCCGTATTTGGT (site GCTTGCCCTAC),0.017
8,GCTTGCCCATGGACCGGTTTTCCCGGTAATCCGTATTTGGT (site GCTTGCCCTAG),0
9,GCTTGCCCATGGACCGGTTTTCCCGGTAATCCGTATTTGGT (site GCTTGCCCTAT),0
10,GCTTTACCATGGACCGGTTTTCCCGGTAATCCGTATTTGTT (site GCTTTACCTAA),0.0408
11,GCTTTAGCATGGACCGGTTTTCCCGGTAATCCGTATTTGTT (site GCTTTAGCTAA),0.00318
12,GGAAATCCATGGACCGGTTTTCCCGGTAATCCGTATTTGAA (site GGAAATCCTTT),0.994
13,GGAAATCCATGGACCGGTTTTCCCGGTAATCCGTATTTGAA (site GGCAATCCTTT),0
14,GGAAATCCATGGACCGGTTTTCCCGGTAATCCGTATTTGAA (site GGGAATCCTTT),0
15,GGAAATCCATGGACCGGTTTTCCCGGTAATCCGTATTTGAA (site GGTAATCCTTT),0
16,GGAAATCCATGGACCGGTTTTCCCGGTAATCCGTATTTGGT (site GGAAATCCTAC),0
17,GGAACGGCATGGACCGGTTTTCCCGGTAATCCGTATTTGGA (site GGAACGGCTTC),1.09
18,GGAAGCTCATGGACCGGTTTTCCCGGTAATCCGTATTTGTT (site GGAAGCTCTAA),2.26
19,GGAATGGCATGGACCGGTTTTCCCGGTAATCCGTATTTGGT (site GGAATGGCTAC),1.5
20,GGAATGGCATGGACCGGTTTTCCCGGTAATCCGTATTTGGT (site GGACTGGCTAC),0.00772
21,GGAATGGCATGGACCGGTTTTCCCGGTAATCCGTATTTGGT (site GGAGTGGCTAC),0.00394
22,GGAATGGCATGGACCGGTTTTCCCGGTAATCCGTATTTGGT (site GGATTGGCTAC),0.00922
23,GGAATTGCATGGACCGGTTTTCCCGGTAATCCGTATTTGCC (site GGAATTGCTGG),0
24,GGACACGCATGGACCGGTTTTCCCGGTAATCCGTATTTGCT (site GGACACGCTAG),2.59
25,GGACAGACATGGACCGGTTTTCCCGGTAATCCGTATTTGCC (site GGAAAGACTGG),0
